In article PMC8429736, “Pharmacological characterization of mutant huntingtin aggregate-directed PET imaging tracer candidates” (Scientific Reports, 2021):

How the values were obtained:
[1] = target: T1, Exon1-Q46 aggregates (Homo sapiens, UniProt P42858, INS38QQQQQQQQQQQQQQQQQQQQQQQQQ); assay: RAFTA saturation binding, recombinant Exon1-Q46 aggregates
T1 construct: MBP-HTT(1-89)Q46-His(6x); MBP (N, cleaved yes); made in house; host or cells: E. coli BL21 (DE3)

[2] = test system: mHTT aggregates in HOM zQ175 brain sections; assay: In vitro ARG, single concentration, HOM zQ175 brain sections; assay type: binding, mouse; details: 0.5 nM
Procedure: (§1) Twenty µm-thick sections were prepared from brains of disease mouse models and WT mice or human post-mortem brain samples by using a cryostat, mounted on superfrost slides and stored at -80 °C for a maximum of 2 weeks. On the day of the experiment, slides were adapted to room temperature for 30 min and then equilibrated by immersion into assay buffer (50 mM Tris–HCl pH 7.4; 120 mM NaCl; 5 mM KCl; 2 mM CaCl2; 1 mM MgCl2) for 20 min at room temperature.
(§2) Radioligand solutions were prepared in assay buffer. Optimal radioligand concentrations were determined in advance based on signal-to-background ratio obtained in mouse or human brain tissue. The solutions were mixed in a Coplin jar (Sigma, S5516-6EA) by gently shaking at 175 rpm for 10 min at room temperature. Sections were incubated by immersion into assay buffer containing either only radioligand (total binding or TB) or radioligand plus 10 µM of unlabeled compound (non-specific binding or NSB) for 60 min at room temperature. Afterwards slides were washed three times for 10 min with ice-cold washing buffer (50 mM Tris–HCl (pH 7.4)) at 4 °C and dipped for three seconds in ice-cold distilled water to remove buffer salts. The slides were dried for 3 h at 30 °C and exposed for 96 h to a Tritium Phosphor Screen (GE Healthcare, Fuji BAS-TR 2025 E) Stored radiation energy on the screen was scanned using a Phosphorimager (GE Healthcare, Typhoon FLA 7000). Densitometric data analysis of radioligand binding was performed using the MCID Analysis 7.1 software (Interfocus Imaging Ltd.). Radioisotope concentration standards (American Radiolabeled Chemicals, ART 0123C and ART 0123B) were exposed with each specimen to enable conversion of density values into tissue-equivalent ligand concentrations (e.g., fmol/mg tissue). A standard curve was created to relate the system´s internal relative optical density measurement (ROD; an inverse logarithmic function of gray level values) to the set of standard values (e.g., isotope concentration). The standard´s isotope concentration (e.g., nCi/mg) is therefore converted into tissue-equivalent ligand concentrations (e.g., fmol/mg tissue) by referring to the radioligand´s specific activity (e.g., Ci/mmol) and including decay-correction. After phosphor screen exposure the human brain sections were stained for 4 min with 0.1% toluidine blue dye solution (Sigma-Aldrich) and rinsed twice in distilled water. To differentiate gray and white matter, the slides were decolorized with 70% ethanol (Merck) for 2–5 min followed by rinse in distilled water. Gray matter appears as gray color and white matter as bluish.

[3] = In vitro ARG, single concentration, WT mouse brain sections; assay type: binding; details: 0.5 nM
Procedure: as §1, §2

[4] = test system: mHTT aggregates in human HD brain sections; assay: ARG, human post-mortem HD frontal cortex sections; assay type: binding
[5] = ARG, human post-mortem CTRL frontal cortex sections; assay type: binding
[6] = target: beta amyloid plaques (6E10 antibody) (Homo sapiens, UniProt P05067); assay: HR ARG co-registration with 6E10 antibody, human AD brain sections; assay type: binding; details: 10 nM CHDI-180, 10 nM CHDI-626, 0.1 nM PiB, 1 nM T808
[7] = test system: mHTT aggregates in R6/2 mice brain sections; assay: In vitro ARG, R6/2 mouse brain sections; assay type: binding; details: 4-, 8- and 12-week-old R6/2 mice
Procedure: as §1
Radioligand solutions were prepared in assay buffer. Optimal radioligand concentrations were determined in advance based on signal-to-background ratio obtained in mouse or human brain tissue. The solutions were mixed in a Coplin jar (Sigma, S5516-6EA) by gently shaking at 175 rpm for 10 min at room temperature. Sections were incubated by immersion into assay buffer containing either only radioligand (total binding or TB) or radioligand plus 10 µM of unlabeled compound (non-specific binding or NSB) for 60 min at room temperature. Afterwards slides were washed three times for 10 min with ice-cold washing buffer (50 mM Tris–HCl (pH 7.4)) at 4 °C and dipped for three seconds in ice-cold distilled water to remove buffer salts. […]

[8] = 1 nM radioligand plus cold compound

T1 sequence (P42858 with tags, fused parts or gaps with the stated changes): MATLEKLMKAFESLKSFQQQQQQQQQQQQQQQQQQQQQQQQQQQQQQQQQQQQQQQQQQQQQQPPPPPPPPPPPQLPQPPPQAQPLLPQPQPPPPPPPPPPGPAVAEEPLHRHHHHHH
Chain of beta amyloid plaques (6E10 antibody) (P05067 672-713 limits assumed): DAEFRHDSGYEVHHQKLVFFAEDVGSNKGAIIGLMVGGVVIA

SMILES: COc1ccc(COc2ccc3oc(-c4ccc(=O)n(C)n4)nc3c2)nc1 [CHDI-180]
- Kd [1]: 5.6 nM
- RAFTA Bmax [1]: 1456 fmol/mg
- NSB ([2]; 3 month HOM Q175, CTX): 1.3 ± 2.2 fmol/mg
- SB ([2]; 3 month HOM Q175, CTX): 4.3 ± 2.3 fmol/mg
- TB ([2]; 3 month HOM Q175, CTX): 5.6 ± 0.3 fmol/mg
- NSB ([2]; 3 month HOM Q175, HPC): 0.3 ± 0.3 fmol/mg
- SB ([2]; 3 month HOM Q175, HPC): 4.8 ± 0.4 fmol/mg
- TB ([2]; 3 month HOM Q175, HPC): 5.1 ± 0.3 fmol/mg
- NSB ([2]; 3 month HOM Q175, STR): 0.4 ± 0.4 fmol/mg
- SB ([2]; 3 month HOM Q175, STR): 3.5 ± 0.3 fmol/mg
- TB ([2]; 3 month HOM Q175, STR): 3.9 ± 0.5 fmol/mg
- NSB ([2]; 6 month HOM Q175, CTX): 0.2 ± 0.4 fmol/mg
- SB ([2]; 6 month HOM Q175, CTX): 24.4 ± 1.4 fmol/mg
- TB ([2]; 6 month HOM Q175, CTX): 24.6 ± 1.0 fmol/mg
- NSB ([2]; 6 month HOM Q175, HPC): 0.1 ± 0.0 fmol/mg
- SB ([2]; 6 month HOM Q175, HPC): 25.0 ± 1.6 fmol/mg
- TB ([2]; 6 month HOM Q175, HPC): 25.1 ± 1.6 fmol/mg
- NSB ([2]; 6 month HOM Q175, STR): 0.3 ± 0.2 fmol/mg
- SB ([2]; 6 month HOM Q175, STR): 15.8 ± 2.7 fmol/mg
- TB ([2]; 6 month HOM Q175, STR): 16.1 ± 2.9 fmol/mg
- NSB ([2]; 9 month HOM Q175, CTX): 0.9 ± 0.8 fmol/mg
- SB ([2]; 9 month HOM Q175, CTX): 48.8 ± 8.3 fmol/mg
- TB ([2]; 9 month HOM Q175, CTX): 49.7 ± 7.4 fmol/mg
- NSB ([2]; 9 month HOM Q175, HPC): 0.2 ± 0.2 fmol/mg
- SB ([2]; 9 month HOM Q175, HPC): 41.3 ± 2.2 fmol/mg
- TB ([2]; 9 month HOM Q175, HPC): 41.5 ± 2.4 fmol/mg
- NSB ([2]; 9 month HOM Q175, STR): 0.4 ± 0.4 fmol/mg
- SB ([2]; 9 month HOM Q175, STR): 28.4 ± 2.4 fmol/mg
- TB ([2]; 9 month HOM Q175, STR): 28.8 ± 2.7 fmol/mg
- NSB ([2]; 12 month HOM Q175, CTX): 0.8 ± 0.7 fmol/mg
- SB ([2]; 12 month HOM Q175, CTX): 70.2 ± 10.5 fmol/mg
- TB ([2]; 12 month HOM Q175, CTX): 70.9 ± 11.0 fmol/mg
- NSB ([2]; 12 month HOM Q175, HPC, n=2): 0.4 ± 0.7 fmol/mg
- NSB ([2]; 12 month HOM Q175, STR): 0.4 ± 0.3 fmol/mg
- SB ([2]; 12 month HOM Q175, STR): 41.3 ± 2.8 fmol/mg
- TB ([2]; 12 month HOM Q175, STR): 41.6 ± 3.1 fmol/mg
- NSB ([3]; 3 month WT, CTX): 0.6 ± 0.5 fmol/mg
- SB ([3]; 3 month WT, CTX): 1.3 ± 1.0 fmol/mg
- TB ([3]; 3 month WT, CTX): 1.9 ± 0.5 fmol/mg
- NSB ([3]; 3 month WT, HPC): 0.5 ± 0.6 fmol/mg
- SB ([3]; 3 month WT, HPC): 1.6 ± 0.6 fmol/mg
- TB ([3]; 3 month WT, HPC): 2.0 ± 0.4 fmol/mg
- NSB ([3]; 3 month WT, STR): 0.7 ± 0.6 fmol/mg
- SB ([3]; 3 month WT, STR): 1.1 ± 0.4 fmol/mg
- TB ([3]; 3 month WT, STR): 1.8 ± 0.3 fmol/mg
- NSB ([3]; 6 month WT, CTX): 0.5 ± 0.6 fmol/mg
- SB ([3]; 6 month WT, CTX): 1.2 ± 0.5 fmol/mg
- TB ([3]; 6 month WT, CTX): 1.8 ± 0.1 fmol/mg
- NSB ([3]; 6 month WT, HPC): 0.6 ± 0.8 fmol/mg
- SB ([3]; 6 month WT, HPC): 1.5 ± 0.1 fmol/mg
- TB ([3]; 6 month WT, HPC): 2.2 ± 0.7 fmol/mg
- NSB ([3]; 6 month WT, STR): 0.4 ± 0.5 fmol/mg
- SB ([3]; 6 month WT, STR): 1.6 ± 0.1 fmol/mg
- TB ([3]; 6 month WT, STR): 2.0 ± 0.6 fmol/mg
- NSB ([3]; 9 month WT, CTX): 0.1 ± 0.2 fmol/mg
- SB ([3]; 9 month WT, CTX): 1.2 ± 0.2 fmol/mg
- TB ([3]; 9 month WT, CTX): 1.3 ± 0.4 fmol/mg
- NSB ([3]; 9 month WT, HPC): 0.6 ± 0.8 fmol/mg
- SB ([3]; 9 month WT, HPC): 1.1 ± 0.5 fmol/mg
- TB ([3]; 9 month WT, HPC): 1.8 ± 0.5 fmol/mg
- NSB ([3]; 9 month WT, STR): 0.0 ± 0.0 fmol/mg
- SB ([3]; 9 month WT, STR): 1.6 ± 0.1 fmol/mg
- TB ([3]; 9 month WT, STR): 1.6 ± 0.1 fmol/mg
- NSB ([3]; 12 month WT, CTX): 0.1 ± 0.1 fmol/mg
- SB ([3]; 12 month WT, CTX): 1.2 ± 0.2 fmol/mg
- TB ([3]; 12 month WT, CTX): 1.3 ± 0.3 fmol/mg
- NSB ([3]; 12 month WT, HPC): 0.0 ± 0.1 fmol/mg
- SB ([3]; 12 month WT, HPC): 1.6 ± 0.5 fmol/mg
- TB ([3]; 12 month WT, HPC): 1.6 ± 0.4 fmol/mg
- NSB ([3]; 12 month WT, STR): 0.2 ± 0.2 fmol/mg
- SB ([3]; 12 month WT, STR): 1.2 ± 0.2 fmol/mg
- TB ([3]; 12 month WT, STR): 1.3 ± 0.0 fmol/mg
- NSB in HD brain sections [4, 8]: below 0.5 fmol/mg tissue
- binding to frontal cortical sections from HD donors ([4]; 1 nM radioligand, gray matter): 2.0 ± 0.4 fmol/mg tissue
- white matter binding ([4]; 1 nM radioligand, human frontal cortex sections): ≤ 0.5 fmol/mg tissue
- NSB in CTRL brain sections [5, 8]: below 0.5 fmol/mg tissue
- binding to frontal cortical sections, CTRL tissue ([5]; 1 nM radioligand, gray matter): 0.8 ± 0.3 fmol/mg tissue
- co-registration with 6E10-positive beta amyloid plaques [6]: low density binding
- specific binding to STR, CTX and HPC with age [7]: age-dependent increase in specific binding
